Reference: US20230087609A1, “USE OF A SOLUBLE GUANYLATE CYCLASE (sGC) STIMULATOR OR OF A COMBINATION OF A sGC STIMULATOR AND AN sGC ACTIVATOR FOR CONDITIONS WHEREIN THE HEME GROUP OF sGC IS OXIDIZED OR WHEREIN sGC IS DEFICIENT IN HEME” (Universiteit Maastricht, priority 2020, published 2023)
Entries after “also recorded” stand apart in the source; their conditions may differ.

Molecular target: T1, human sGCa1 and mutant sGCβ1H105F (apo-sGC) in Sf9 cells (Homo sapiens, UniProt Q02153, H105F)
T1 construct: His tag; expressed in transfected cells; host or cells: Sf9 cells co-infected with baculoviruses
T1 sequence (Q02153 1-619 H105F): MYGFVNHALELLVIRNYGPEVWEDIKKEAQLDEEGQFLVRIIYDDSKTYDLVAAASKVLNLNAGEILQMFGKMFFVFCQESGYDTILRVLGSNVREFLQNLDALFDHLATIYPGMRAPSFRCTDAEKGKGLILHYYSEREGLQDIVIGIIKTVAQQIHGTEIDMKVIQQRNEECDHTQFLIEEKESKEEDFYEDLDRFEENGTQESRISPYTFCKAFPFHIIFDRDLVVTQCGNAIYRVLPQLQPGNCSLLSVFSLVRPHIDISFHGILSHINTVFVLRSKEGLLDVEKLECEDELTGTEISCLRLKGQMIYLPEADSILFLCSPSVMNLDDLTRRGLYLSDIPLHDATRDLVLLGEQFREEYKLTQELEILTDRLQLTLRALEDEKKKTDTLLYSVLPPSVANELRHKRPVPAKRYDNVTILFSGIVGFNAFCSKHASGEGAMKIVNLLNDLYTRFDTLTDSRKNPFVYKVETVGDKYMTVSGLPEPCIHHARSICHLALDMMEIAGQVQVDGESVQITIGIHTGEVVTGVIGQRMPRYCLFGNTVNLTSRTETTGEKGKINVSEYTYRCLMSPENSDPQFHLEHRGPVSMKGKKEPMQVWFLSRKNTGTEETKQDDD
T1 sequence (Q02108 1-690 partner): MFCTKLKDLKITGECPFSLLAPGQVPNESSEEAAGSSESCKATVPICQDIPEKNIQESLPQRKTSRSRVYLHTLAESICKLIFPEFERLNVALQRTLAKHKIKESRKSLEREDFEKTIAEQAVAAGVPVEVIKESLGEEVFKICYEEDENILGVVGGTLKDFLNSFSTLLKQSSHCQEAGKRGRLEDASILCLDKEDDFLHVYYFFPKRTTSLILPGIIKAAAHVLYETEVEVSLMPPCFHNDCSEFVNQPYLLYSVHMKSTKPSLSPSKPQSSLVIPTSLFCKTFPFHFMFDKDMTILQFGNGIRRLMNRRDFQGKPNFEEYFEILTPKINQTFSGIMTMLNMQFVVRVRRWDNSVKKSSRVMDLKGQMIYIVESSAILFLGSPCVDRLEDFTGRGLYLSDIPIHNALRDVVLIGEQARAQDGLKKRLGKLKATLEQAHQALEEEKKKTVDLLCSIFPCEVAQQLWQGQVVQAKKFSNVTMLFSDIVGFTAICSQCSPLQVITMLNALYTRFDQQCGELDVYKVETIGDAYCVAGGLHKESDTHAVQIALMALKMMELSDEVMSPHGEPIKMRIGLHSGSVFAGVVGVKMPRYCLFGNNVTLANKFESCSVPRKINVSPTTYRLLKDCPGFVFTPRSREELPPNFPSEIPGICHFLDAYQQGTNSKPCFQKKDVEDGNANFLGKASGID
Assay: cGMP accumulation in intact Sf9 cells expressing apo-sGC
Type: cell-based
Settings: for cGMP formation, sGC stimulator combined with NO donor: 30 micromole/L Bay 41-2272 + 10 micromole/L DETA-NONOate (FIG. 12A, B); for cGMP formation, sGC stimulator only: 30 micromole/L Bay 41-2272 alone (FIG. 12A)
Experimental: Sf9 cells were co-infected with baculoviruses expressing human sGCa1 and mutant sGCβ1H105F. Forty-eight hours post-infection, the cells were treated with vehicle, NO donor, sGC stimulator, sGC activator or combination in 2 ml final volume of 10^6 cells per ml then the cells were incubated for 10 min at 27° C. The reaction was terminated by the addition of 0.1M of HCl, and cGMP was extracted on ice for 20 min. Cells were then sonicated to ensure complete lysis. The extract was then centrifuged and used for cGMP determination by an ELISA (Enzo Life Sciences).
Forty-eight hours post-infection, the cells were treated with vehicle, NO donor, sGC stimulator, sGC activator or combination in 2 ml final volume of 10^6 cells per ml and subsequently, the cells were incubated for 10 minutes at 27° C. The reaction was terminated by the addition of 0.1M of HCl, and cGMP was extracted on ice for 20 minutes. Cells were then sonicated to ensure complete lysis. The obtained cell extract was then centrifuged and used for cGMP determination by an ELISA. […] In the absence of any of the NO donor, the sGCs or the combination of these compounds, no cGMP synthesis is detected. It is now for the first time shown by the inventors that apo-sGC is still activatable even in the absence of an sGC activator known in the art. The presence of the sGCs facilitates NO binding to a secondary, heme-independent NO binding-site, and in addition, presence of an NO donor acts synergistically, when cGMP production is considered. Due to the invention, it is now made possible to treat patients with an sGCs, resulting in cGMP formation, under conditions wherein treatment with sGC activators has no effect at all or a too small effect, e.g. under conditions of ischemia, neonatal asphyxia, stroke, hypoxia, acute respiratory distress syndrome, asthma, oxidative (organ and/or tissue and/or cell) damage, etc. The invention provides a new treatment modality for these patients, which are often not sensitive (enough) for sGCa treatment. […] C.

cGMP formation, sGC stimulator combined with NO donor (listed as Bay 41-2272): synergistic increase in cGMP formation
cGMP formation, sGC stimulator only (listed as Bay 41-2272): increase in cGMP formation
Structure (SMILES): Nc1nc(-c2nn(Cc3ccccc3F)c3ncccc23)ncc1C1CC1 [BAY 41-2272, 5-cyclopropyl-2-[1-(2-fluoro-benzyl)-1H-pyrazolo[3,4-b]pyridin-3-yl]-pyrimidin-4-ylamine]
cGMP formation, sGC stimulator combined with NO donor (listed as Bay41-2272): more than double amount of cGMP; also recorded: synergistic increase in cGMP formation
cGMP formation, sGC stimulator only (listed as Bay41-2272): resulted in cGMP production; also recorded: increase in cGMP formation
